Laboratory results: US8697662B2, “Methods for treating Kaposi sarcoma” (PTC Therapeutics, Inc., priority 2009, dated 2014)

What was measured:
HeLa cells = assay: […]-GLO luminescent cell viability assay in HeLa cultures; format: cell-based, human; settings: any concentration tested
Method: Experimental Design. HeLa (human cervical carcinoma) cell cultures were established under normoxic conditions (21% oxygen). HeLa cells increase VEGF production 4- to 5-fold in response to hypoxia. […] At the completion of treatment, the conditioned media were collected and the VEGF protein levels were assayed in an enzyme-linked immunosorbent assay (ELISA) with primary antibodies that recognize the soluble VEGF121 and VEGF165 isoforms (R & D Systems, Minneapolis, Minn., USA). To ensure that decreases in VEGF concentration were not due to cytotoxicity, cultures were assayed using a standard assay ([…]-GLO® Luminescent Cell Viability Assay; Promega, Madison, Wis., USA) that measures total cellular adenosine triphosphate (ATP) concentrations as an indicator of cell viability.

soluble VEGF isoforms = assay: ELISA of soluble VEGF production in nontransformed keratinocytes under hypoxia or normoxia; format: cell-based, human; settings: normoxic, 72 hours
Method: Experimental Design. Nontransformed normal human keratinocyte cell cultures were established under normoxic conditions (21% oxygen). […] At the completion of treatment, cells were assessed for viability with an ATP assay and conditioned media were evaluated for VEGF protein levels by ELISA (as described in Section 9.1.1.1).

HT1080 xenografts = assay: Time course of tumor size and plasma human VEGF in HT1080 xenografts; format: in vivo, athymic nude mice
Method: Experimental Design. HT1080 cells (5×10^6 cells/mouse) were implanted subcutaneously in male athymic nude mice.
Tumor size was measured by calipers immediately pre-treatment and at the time of sacrifice on Day 1, 2, or 3 (5 mice per group per day). At sacrifice, the plasma was collected for assay of pathologic human VEGF concentration using an ELISA that recognizes human VEGF121 and VEGF165 (as described in Section 9.1.1.1).

[1] = system: SY5Y orthotopic xenografts; assay: Orthotopic SY5Y neuroblastoma tumor model (kidney capsule), tumor weight; format: in vivo; settings: 5 weeks of treatment
Source text: (§1) Experimental Design. In orthotopic tumor models, human tumor cells are implanted into the mouse in an organ that corresponds to the location from which the tumors arise. Such models may provide a better predictor of clinical efficacy than injection of tumors into the flanks of nude mice. See Hoffman, Invest. New Drugs 1999, 17(4):343-59. SY5Y neuroblastoma or SKNEP Ewing sarcoma tumor cells (1×10^6 cells/mouse) were implanted into the kidney capsule of female athymic nude mice according to published methods. See Huang et al., Proc. Natl. Acad. Sci. USA 2003, 100(13):7785-90. One week after implantation of each type of tumor, mice were divided into 2 groups and were administered a test Compound as shown in Table 21.
(§2) After 5 weeks of treatment, the mice were sacrificed, and the weights of the tumors were assessed.

[2] = system: SKNEP orthotopic xenografts; assay: Orthotopic SKNEP Ewing sarcoma tumor model (kidney capsule), tumor weight; format: in vivo; settings: 5 weeks of treatment
Source text: as §1, §2

HT1080 cells [3] = assay: Cell cycle analysis by propidium iodide flow cytometry in HT1080 cells (S-phase accumulation, Table 24); format: cell-based, human; settings: HT1080, normoxic, 18 hours
Method: Experimental Design. […] After treatment, cells were trypsinized, and stained with propidium iodide (PI) dye to measure DNA content of individual cells by flow cytometry. Output comprised histograms showing relative DNA content in 10,000 cells.
While compounds which cause greater than 20% of the cells to accumulate in S-phase at 100 nM are considered active, a larger percentage of cells may be accumulated in S-phase at lower doses depending on the Compound, as shown in FIG. 12 for example.

HT1080 cells [4] = assay: Anchorage-independent colony formation of HT1080 cells in agar; format: cell-based, human; settings: 10 and 50 nM, day 18; not statistically significant
Method: Experimental Design. HT1080 cells growing in monolayer were trypsinized, counted and suspended in a 0.35% agar noble/1× complete DMEM solution at 37° C. at a concentration of 2,500 cells/mL. One ml of this solution was layered over a semisolid base consisting of 0.5 mL of 0.75% agar noble/1× complete DMEM in a six well tissue culture plate. […] Tissue culture plates were then returned to the incubator and colonies were allowed to form. […] On day 18 the vehicle-treated wells had colonies of sufficient size to count (>50 cells/colony). At this time, for increased visualization, 1.5 mL of a 2× working volume of (3-(4,5-Dimethylthiazol-2-yl)-2,5-diphenyltetrazolium bromide, a tetrazole) (MTT, Invitrogen, Cat #C35007) was added and the plates were returned to the incubator for 2 hours until colonies were stained by conversion of the MTT to purple formazan crystals. Colonies were then visually counted under a dissecting microscope.

[5] = Functional observation battery, 7 days oral gavage; format: in vivo, Sprague Dawley rats; settings: 40, 120, and 400 mg/kg daily oral gavage
[6] = Oral pharmacokinetics / toxicokinetics in rats; format: in vivo, Sprague Dawley rats
Method: The pharmacokinetic evaluations in mice were adjuncts to the primary pharmacodynamic xenograft studies. The evaluations in rats included toxicokinetic assessments in single-dose, 7-day, and 28-day toxicology studies as well as a mass-balance study after a single oral dose of ^14C-Compound #10. The evaluations in dogs included toxicokinetic assessments in 7-day and 28-day toxicology studies. In the studies performed, rodents were dosed once daily with Compound #10 formulated in vehicle and administered via oral gavage.

[7] = In vitro plasma protein binding of 14C-radiolabeled Compound #10; format: in vitro ADME, mice, rats, dogs, monkeys, and humans; settings: 0.05 to 50 μg/mL
CYP2C9 = target: T1, CYP2C9 (Homo sapiens, UniProt P11712); assay: CYP inhibition in human hepatic microsomes or recombinant isoenzymes: CYP2C9; format: in vitro ADME
T1 construct: host or cells: human hepatic microsomes or human recombinant isoenzymes
Source text: (§3) It is possible that in certain clinical trial subjects, such agents may need to be adjusted for dosing or replaced by alternative agents that are not metabolized by CYP2D6, particularly when such agents may have a low therapeutic index.

CYPC19 = target: T2, CYPC19 (Homo sapiens, UniProt P33261); assay: CYP inhibition in human hepatic microsomes or recombinant isoenzymes: CYPC19; format: in vitro ADME
T2 construct: host or cells: human hepatic microsomes or human recombinant isoenzymes
Source text: as §3

[8] = Single-dose oral toxicity study in rats; settings: Sprague Dawley, rat, in vivo, 1 day
Method: A battery of genotoxicity studies was also performed. […] The L23 vehicle was used.
Because maximal exposure occurred at 100 mg/kg, this dose is considered the NOAEL for 1 day of dosing.

[9] = system: bacterial reverse mutation; assay: Bacterial reverse mutation study; settings: with and without exogenous metabolic activation
Method: (§4) Genotoxicity was assessed in a battery of in vitro and in vivo studies that included a bacterial reverse mutation study, a chromosome aberration study in Chinese hamster ovary (CHO) cells, and a micronucleus study in rats by the oral route. The in vitro studies were performed in the presence and absence of an exogenous metabolic activation system.

[10] = Micronucleus study in rats by the oral route; format: in vivo
Method: as §4

in vivo = settings: both, beagle, dog, po
Method: The L23 vehicle was used. […] All studies in the toxicology program were conducted according to GLP regulations.

T1 sequence (P11712 whole entry): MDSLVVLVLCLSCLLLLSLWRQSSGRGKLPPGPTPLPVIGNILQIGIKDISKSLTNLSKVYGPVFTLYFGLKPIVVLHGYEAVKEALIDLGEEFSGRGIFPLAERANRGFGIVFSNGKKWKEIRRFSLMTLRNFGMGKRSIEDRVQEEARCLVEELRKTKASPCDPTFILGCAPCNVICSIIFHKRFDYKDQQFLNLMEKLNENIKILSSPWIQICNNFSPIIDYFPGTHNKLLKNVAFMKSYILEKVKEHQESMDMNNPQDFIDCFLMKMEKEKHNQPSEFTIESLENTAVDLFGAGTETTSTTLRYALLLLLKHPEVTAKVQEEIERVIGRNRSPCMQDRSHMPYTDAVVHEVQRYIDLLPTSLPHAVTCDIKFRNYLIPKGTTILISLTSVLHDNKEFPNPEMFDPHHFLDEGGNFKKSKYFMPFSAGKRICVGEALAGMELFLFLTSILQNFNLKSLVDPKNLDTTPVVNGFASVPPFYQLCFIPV
T2 sequence (P33261 whole entry): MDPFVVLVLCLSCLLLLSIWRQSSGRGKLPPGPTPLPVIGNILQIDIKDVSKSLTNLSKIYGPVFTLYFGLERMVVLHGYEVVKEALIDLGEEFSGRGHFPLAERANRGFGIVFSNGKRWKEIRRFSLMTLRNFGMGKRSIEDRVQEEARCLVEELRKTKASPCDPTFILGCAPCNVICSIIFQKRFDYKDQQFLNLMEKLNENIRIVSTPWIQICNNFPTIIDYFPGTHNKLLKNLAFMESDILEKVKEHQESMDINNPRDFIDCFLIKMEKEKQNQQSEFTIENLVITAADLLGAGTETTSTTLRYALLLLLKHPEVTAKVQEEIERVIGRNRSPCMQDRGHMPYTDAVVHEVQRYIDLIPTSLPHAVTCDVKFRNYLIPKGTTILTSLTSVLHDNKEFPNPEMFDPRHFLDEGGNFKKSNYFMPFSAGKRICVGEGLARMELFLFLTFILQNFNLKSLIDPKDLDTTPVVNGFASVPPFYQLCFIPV

For COc1ccc(C2c3[nH]c4ccc(Cl)cc4c3CCN2C(=O)Oc2ccc(Cl)cc2)cc1 (racemic) [Compound #10], the “cytotoxicity (cell viability, ATP)” value (HeLa cells) was “No cytotoxicity was observed”, the “decrease in VEGF concentrations in conditioned media” value (soluble VEGF isoforms) was 21% and the “pathologic plasma human VEGF concentrations (in words)” value (HT1080 xenografts; Days 2 and 3, 10 mg/kg oral QD) was “continued to decline”. The “pathologic plasma human VEGF levels (in words)” value (HT1080 xenografts; by Day 1) was “numerically lower than in control animals”, the “reducing tumor derived plasma VEGF levels, comparison (in words)” value (HT1080 xenografts; by Day 3 of treatment) was “as active as bevacizumab and more effective than doxorubicin” and the “tumor growth (tumor weight) (in words)” value [1] was “completely prevented growth”. For the same compound, the “tumor growth (tumor weight) (in words)” value [2] was “completely prevented growth”, the “concentration from which an accumulation of cells in S phase can be observed” value (HT1080 cells [3]) was at least 1 nM and the “cell cycle distribution, DNA content (in words)” value (HT1080 cells [3]; Compound #10 0.3 nM to 100 nM, Compound 1205 10 nM) was “induced a redistribution of the cycling characteristics of the cell population”. For the same compound, the “number of colonies formed (in words)” value (HT1080 cells [4]) was “modest trend toward a reduced number of colonies”, the “behavioral or neurological effects (functional observation battery)” value [5] was “no adverse behavioral or neurological effects” and the “oral bioavailability (in words)” value [6] was “orally bioavailable”. The “relationship between dose and plasma exposure (in words)” value ([6]; oral) was “bell-shaped curve”, the “concentration dependence of protein binding (in words)” value [7] was “independent of concentration” and the “inhibition of CYP2C9 (in words)” value (CYP2C9) was “No meaningful inhibition”. The “inhibition of CYPC19 (in words)” value (CYPC19) was “No meaningful inhibition”, the “dose at which maximal exposure occurred” value [8] was 100 mg/kg and the genotoxic effects [9] was “no evidence of genotoxic effects”. For the same compound, the genotoxic effects [10] was “no evidence of genotoxic effects” and the NOAEL at 28 days (in vivo) was 30 mg/kg/day.
